Several values for one entry are separate records, joined by “and”; a condition that tells them apart may be missing. Equal entries are not always repeated.
Columns and labels:
Assay type in all cases: cell-based, human
[1] = Proliferation/cytotoxicity assay (sulphorhodamine B) on PIG1 melanocyte; conditions: human, PIG1 immortalized epidermal melanocyte cells; PIG1 melanocyte, incubation 72 h; read-out: IC50 on growth (cytotoxic effect)
[2] = Proliferation/cytotoxicity assay (sulphorhodamine B) on Hs-68 fibroblast; conditions: human, Hs-68 foreskin fibroblast cells; Hs-68 fibroblast, incubation 72 h; read-out: IC50 on growth (cytotoxic effect)
PIG1 cells = assay: Proliferation/cytotoxicity assay (sulphorhodamine B) on PIG1 melanocyte; conditions: PIG1, compared with dithranol
Hs-68 cells = assay: Proliferation/cytotoxicity assay (sulphorhodamine B) on Hs-68 fibroblast; conditions: Hs-68, compared with dithranol

SMILES	IC50 at 72 h [1]	IC50 at 72 h [2]	less cytotoxicity on melanocytes than dithranol (PIG1 cells)	less cytotoxicity on fibroblasts than dithranol (Hs-68 cells)
O=C1c2c(O)cccc2Cc2cccc(O)c21 [Dithranol, dithranol, reference compound]	2.34 µM and 0.53 µg/mL	27.4 µM and 6.2 µg/mL	–	–
O=C(O)c1cc(O)c2ccccc2c1O [DHNA, 1,4-dihydroxy-2-naphthoic acid]	24 µM and 4.9 µg/mL	226 µM and 46.2 µg/mL	~ 10 times	~ 8 times

Reference: article PMC3638593, “1,4-dihydroxy-2-naphthoic Acid Induces Apoptosis in Human Keratinocyte: Potential Application for Psoriasis Treatment” (Evidence-based Complementary and Alternative Medicine : eCAM, 2013)
